Data as given in patent publication US6693063B2, “Herbicidal composition” (Aventis CropScience GmbH, priority 2000, dated 2004).

Test system: monocotyledonous and dicotyledonous weeds
Assay: Greenhouse post-emergence herbicidal test, effect rated visually against untreated controls
Assay type: in vivo
Method: Seeds or rhizome pieces of monocotyledonous and dicotyledonous weeds were placed in sandy loam soil in plastic pots, covered with soil and grown in a greenhouse under good growth conditions. Three weeks after seeding, the test plants were treated in the three-leaf stage. The compositions of the invention, formulated as wettable powders or as emulsion concentrates, were sprayed onto the green parts of the plants at various application rates of 600-800 l of water/ha (converted). The test plants were allowed to stand in the greenhouse under optimum growth conditions for about 3 to 4 weeks, and the effect of the preparations was then rated visually in comparison to untreated controls. The compositions according to the invention have good herbicidal activity against harmful plants of economic importance.

Row | Compound | herbicidal activity compared with a commercial formulation of bromoxynil-octanoate (300 and 600 g of AS/ha as microcapsule suspension (10%, Formulation Example 2), applied with a surfactant such as Genapol X 150, Genapol X 200, Sapogenat T130, T 200, T 300, T 400, T 500 or Genapol O 200 at 150, 300 and 600 g of surfactant/ha) | herbicidal activity compared with bromoxynil-Na applied with a surfactant having a lower content of ethylene oxide units (Genapol® 060, 6 ethylene oxide units) (bromoxynil-Na 300 g/ha in combination with a surfactant such as Genapol X 150, Genapol X 200, Sapogenat T130, T 200, T 300, T 400, T 500 or Genapol O 200 at 50, 100, 300 and 60 g/ha, post-emergence, three-leaf stage, rated after about 3 to 4 weeks)
1 | CCCCCCCC(=O)Oc1c(Br)cc(C#N)cc1Br [Bromoxynil-octanoate, bromoxynil-octanoate] | considerably higher | –
2 | N#Cc1cc(Br)c([O-])c(Br)c1.[Na+] [bromoxynil-Na, bromoxynil-sodium] | – | considerably higher
